Test results: patent publication US5380834A, “Immuno-suppressive agent” (Ishihara Sangyo Kaisha Ltd., priority 1992, dated 1995)
Converted amounts (≈) assume the structure as drawn.

Assays:
murine thymocytes = experiment: Effects on the mitogenic response by murine thymocytes (Con A stimulation, 3H-TdR uptake); assay type: cell-based, BALB/c murine; settings: Mus musculus, Thymocyte; BALB/c thymocytes, Con A 5 μg/ml, 48 hours, 3H-TdR uptake; read-out: IC50 value, a (mitogenic response of murine thymocytes)
Description: Using BALB/c murine thymocytes, the effect of the compound of the formula (I) on the mitogenic response of lymphocytes to the stimulation by concanavalin A (hereinafter referred to simply as Con A, Product No. L-1000, manufactured by Vector Laboratories) was studied. Namely, 4×10^5 murine thymocytes were cultured for 48 hours on a microplate with 96 wells in a RPMI1640 solution containing 10% of a fetal bovine serum (hereinafter referred to simply as a 10% FCS-RPMI solution) together with Con A (5 μg/ml) and the compound of the formula (I) (in an incubator, 5% CO2, at 37° C.). Then, 0.5 μCi of ^3 H-thymidine (hereinafter referred to simply as ^3 H-TdR) was added thereto, and the mixture was further cultured for 4 hours. Then, cells were collected by a cell harvester, and the radioactivity (dpm) of ^3 H-TdR uptaken into cells was measured. Such measured amounts of ^3 H-TdR uptaken into the cells were used as indices of the mitogenic response of the murine thymocytes, and the radioactivity at each concentration (from 0.001 to 1,000 μg/ml) of the compound of the formula (I) was compared with the control value treated solely by Con A, to calculate IC50 value. In these Tables 12 and 13, the results of murine thymocytes are shown by (a).
For the basic procedure of this test, reference was made to Selected methods in cellular immunology, p. 144-146 (translated by Katsuyuki Imai et al., published by Rikogakusha, (1982)).

[1] = test system: murine mixed lymphocyte reaction (spleen cells of BALB/c and C57BL/6 mice); experiment: Effects on the murine mixed lymphocyte reaction (3H-TdR uptake); assay type: cell-based; settings: Mus musculus, BALB/c + C57BL/6 spleen cells, 48 hours, read-out: IC50 value, b (murine mixed lymphocyte reaction)
Description: Using spleen cells of BALB/c and C57BL/6 mice, the effect of the compound of the formula (I) on the murine mixed lymphocyte reaction in both sides, was studied. Namely, spleen cells of both types of mice were mixed in an equal amount of 5×10^5 cells each, and the mixed cells were cultured together with the compound of the formula (I) for 48 hours on a microplate with 96 wells by a 10% FCS-RPMI solution (in an incubator, 5% CO2, at 37° C.). Then, 0.5 μCi of ^3 H-TdR was added thereto, and the mixture was further cultured for from 16 to 18 hours. Then, cells were collected by a cell harvester, and the radioactivity (dpm) of ^3 H-TdR uptaken into the cells, was measured. Such measured amounts of ^3 H-TdR uptaken into the cells were used as indices for the mixed lymphocyte reaction, and the radioactivity at each concentration (from 0.001 to 1,000 μg/ml) of the compound of the formula (I) was compared with the non-treated control value, to calculate the Ic50 value.
For the basic procedure for this test, reference was made to Selected methods in cellular immunology, p. 147-149 (translated by Katsuyuki Imai et al., published by Rikogakusha, (1982)).

murine bone mallow cells = experiment: Effects on the murine bone mallow cells (proliferation, 3H-TdR uptake); assay type: cell-based, BALB/c mouse; settings: Mus musculus, bone marrow cells; 20% L929 culture supernatant, 48 hours, 3H-TdR uptake; Tables 12-15; read-out: IC50 value, c (murine bone mallow cells)
Description: Bone mallow cells were removed from the femur of a BALB/c mouse and suspended in a 10% FCS-RPMI solution. The cell suspension was put into a plastic Petri dish having a diameter of 10 cm and left to stand still (in an incubator, 5% CO2, at 37° C.). Two hours later, only floating cells were recovered, and adhesion cells were removed. 1×10^5 floating cells were cultured for 48 hours together with a 20% culture supernatant of L929 fibroblastoma and the compound of the formula (I) on a microplate with 96 wells by a 10% FCS-RPMI solution (in an incubator, 5% CO2, at 37° C.). Then, 0.5 μCi of ^3 H-TdR was added thereto, and the mixture was further cultured for 4 hours. Then, cells were collected by a cell harvester, and the radioactivity (dpm) of ^3 H-TdR uptaken into the cells, was measured. Such measured amounts of ^3 H-TdR uptaken into the cells were used as indices for the proliferation of bone mallow cells, and the radioactivity at each concentration (from 0.001 to 1,000 μg/ml) of the compound of the formula (I) was compared with the control value where the L929 culture supernatant was added alone, to calculate the IC50 value. In these Tables 12 and 13, the results of the bone mallow cells are shown by (c).
For the basic procedure of this test, reference was made to Seikagakujikken Koza compiled by Japan Biochemistry Association, Vol. 5, p. 266-270 (published by Tokyo Kagaku Dojin in 1986).

[2] = test system: IgGl antibody production from murine spleen B cells; experiment: Effects on the IgGl antibody production from murine spleen cells (LPS + IL4); assay type: cell-based, BALB/c mouse; settings: Mus musculus, B-cell, 168 h; spleen B cells, LPS 10 μg/ml, IL4 100 U/ml, 7 days, enzyme-immunoassay; read-out: IC50 value, IgGl antibody production
Description: (§1) Using murine spleen B cells, the effects of the compound of the formula (I) on the IgGl, IgM and IgE antibody production induced by the stimulation by LPS (lipopolysaccharide; Product No. 520.02051, manufactured by Wako Junyaku) and IL4 (interleukin 4), were studied. Namely, spleen cells of a BALB/c mouse were treated with a murine anti-Thy-1 antibody (obtained from Chiba University) and a rabbit complement (Product No. 3051, manufactured by cedarlane) to remove T cells, and 3×10^5 spleen B cells were cultured for 7 days together with 10 μg/ml of LPS, 100 U/ml of mouse-recombinant IL4 (Product No. MIL-4C, manufactured by Genzyme) and each concentration (from […]) of the compound of the formula (I) on a microplate with 96 wells by a 10% FCS-RPMI solution (in an incubator, 5% CO2, at 37° C.).
(§2) For the basic procedure of this test, reference was made to The Journal of Immunology, Vol. 136, p. 4538, (1986).
(§3) The amount of each antibody in the cell culture supernatant hereby obtained, was measured by the following enzyme-immunoassay. Firstly, on a microplate with 96 wells, 1 μg/ml of a rabbit anti-mouse IgGl antibody (Product No. 36243, manufactured by Cappel), 1 μg/ml of a goat anti-mouse IgM antibody (Product No. 0611-0201, manufactured by Cappel) or 10 μg/ml of a rat anti-mouse IgE monoclonal antibody (Product No. LO-ME-2, manufactured by Experimental Immunology) was coated (50 μl/well, at room temperature for 60 minutes), and then a nonspecific bond was blocked by a 0.1% bovine serum albumin-containing 10 mM sodium phosphate buffer (pH 7.2) (at room temperature for 60 minutes). Then, the above-mentioned cell culture supernatant or its diluted solution was added in an amount of 50 μl/well and reacted at room temperature for 60 minutes. Further, an alkaline phosphatase-labeled rabbit anti-mouse IgGl antibody (Product No. 61-0122, manufactured by Zymet) diluted 1,000 times, an alkaline phosphatase-labeled rabbit anti-mouse IgM antibody (Product No. 61-6822, manufactured by Zymet) diluted 2,000 times, or an alkaline phosphatase-labeled goat anti-mouse IgE antibody (Product No. PA-284, manufactured by Binding Site) diluted 500 times was added in an amount of 50 μl/well and reacted at room temperature for 60 minutes. 100 μl/well of a 10% diethanol amine buffer solution (pH 9.8) containing p-nitrophenyl phosphate as an enzyme substrate, was reacted, and the absorbance at 405 nm was measured. The amount of each antibody was calculated from the calibration curve of each standard antibody, and the IC50 value of the compound of the formula (I) on the antibody production was calculated using as the control value a value obtained in the absence of the compound of the formula (I).

[3] = test system: IgM antibody production from murine spleen B cells; experiment: Effects on the IgM antibody production from murine spleen cells (LPS + IL4); assay type: cell-based, BALB/c mouse; settings: Mus musculus, B-cell, 168 h; spleen B cells, LPS 10 μg/ml, IL4 100 U/ml, 7 days, enzyme-immunoassay; read-out: IC50 value, IgM antibody production
Description: as §1, §2, §3

[4] = test system: IgE antibody production from murine spleen B cells; experiment: Effects on the IgE antibody production from murine spleen cells (LPS + IL4); assay type: cell-based, BALB/c mouse; settings: Mus musculus, B-cell, 168 h; spleen B cells, LPS 10 μg/ml, IL4 100 U/ml, 7 days, enzyme-immunoassay; read-out: IC50 value, IgE antibody production
Description: as §1, §2, §3

Row | SMILES | IC50 (murine thymocytes) | IC50 [1] | IC50 (murine bone mallow cells) | IC50 [2] | IC50 [3] | IC50 [4]
1 | O=C(O[C@H]1C=C[C@H]2CO[C@@H]1O2)c1cccs1 [Compound 14] | 42 µg/mL (≈ 176 µM) | 13 µg/mL | 500 µg/mL (≈ 2100 µM) | 10 µg/mL | 0.89 µg/mL | 3.7 µg/mL
2 | O=C(O[C@H]1C=C[C@H]2CO[C@@H]1O2)c1cccnc1 [Compound 15] | 130 µg/mL (≈ 557 µM) | 480 µg/mL | 310 µg/mL (≈ 1330 µM) | 220 µg/mL | 78 µg/mL | 320 µg/mL
3 | O=C(O[C@H]1C=C[C@H]2CO[C@@H]1O2)c1ccc(Cl)cc1 [Compound 16] | 91 µg/mL (≈ 341 µM) | 190 µg/mL | 170 µg/mL (≈ 637 µM) | 41 µg/mL | 20 µg/mL | 50 µg/mL
4 | CCCCCCCCCCCCCCCCCCCC(=O)O[C@H]1C=C[C@H]2CO[C@@H]1O2 [Compound 20] | 150 µg/mL (≈ 355 µM) | 240 µg/mL | 400 µg/mL (≈ 946 µM) | 5.2 µg/mL | 500 µg/mL | 3.2 µg/mL
5 | O=C(Oc1ccccc1)O[C@H]1C=C[C@H]2CO[C@@H]1O2 [Compound 22] | 300 µg/mL (≈ 1210 µM) | 130 µg/mL | > 1000 µg/mL | 670 µg/mL | 230 µg/mL | 4 µg/mL
6 | O=C(Nc1ccccc1)O[C@H]1C=C[C@H]2CO[C@@H]1O2 [Compound 23, 1,6-anhydro-3,4-dideoxy-2-O-phenylcarbamoyl-β-D-threo-hex-3-enopyranose] | 95 µg/mL (≈ 384 µM) | 170 µg/mL | 49 µg/mL (≈ 198 µM) | 72 µg/mL | 69 µg/mL | 43 µg/mL
7 | CNC(=S)O[C@H]1C=C[C@H]2CO[C@@H]1O2 [Compound 24, 1,6-anhydro-3,4-dideoxy-2-O-methylthiocarbamoyl-β-D-threo-hex-3-enopyranose] | 170 µg/mL (≈ 845 µM) | 100 µg/mL | 620 µg/mL (≈ 3080 µM) | 17 µg/mL | 10 µg/mL | 0.22 µg/mL
8 | CC(C)(C)NC(=O)O[C@H]1C=C[C@H]2CO[C@@H]1O2 [Compound 25] | 0.32 µg/mL (≈ 1.41 µM) | 430 µg/mL | 340 µg/mL (≈ 1500 µM) | 0.0015 µg/mL | 78 µg/mL | 0.0034 µg/mL
9 | S=C(Oc1ccccc1)O[C@H]1C=C[C@H]2CO[C@@H]1O2 [Compound 26] | 44 µg/mL (≈ 166 µM) | 20 µg/mL | 200 µg/mL (≈ 757 µM) | 23 µg/mL | 110 µg/mL | 4.5 µg/mL
10 | C=C[C@]1(O)C=C[C@H]2CO[C@@H]1O2 [Compound 27, 1,6-anhydro-3,4-dideoxy-2-C-vinyl-β-D-threo-hex-3-enopyranose] | 49 µg/mL (≈ 318 µM) | 180 µg/mL | 44 µg/mL (≈ 285 µM) | 34 µg/mL | 36 µg/mL | 24 µg/mL
11 | C[C@]1(O)C=C[C@H]2CO[C@@H]1O2 [Compound 28] | 76 µg/mL (≈ 535 µM) | 280 µg/mL | 150 µg/mL (≈ 1060 µM) | 380 µg/mL | 590 µg/mL | 280 µg/mL
12 | CCCC[C@]1(O)C=C[C@H]2CO[C@@H]1O2 [Compound 30] | 110 µg/mL (≈ 597 µM) | 540 µg/mL | 190 µg/mL (≈ 1030 µM) | 190 µg/mL | 150 µg/mL | 24 µg/mL
13 | CCCC#C[C@]1(O)C=C[C@H]2CO[C@@H]1O2 [Compound 31] | 180 µg/mL (≈ 927 µM) | 560 µg/mL | 520 µg/mL (≈ 2680 µM) | 1.5 µg/mL | 10 µg/mL | 140 µg/mL
14 | CC(=O)O[C@@]1(C)C=C[C@H]2CO[C@@H]1O2 [Compound 32, 2-O-acetyl-1,6-anhydro-3,4-dideoxy-2-C-methyl-β-D-threo-hex-3-enopyranose] | 320 µg/mL (≈ 1740 µM) | 540 µg/mL | 540 µg/mL (≈ 2930 µM) | 400 µg/mL | 350 µg/mL | 2.8 µg/mL
15 | CCCCO[C@H]1C=C[C@H]2CO[C@@H]1O2 [Compound 40] | 160 µg/mL (≈ 868 µM) | > 1000 µg/mL | > 1000 µg/mL | 0.067 µg/mL | 110 µg/mL | 0.0026 µg/mL
16 | Cc1ccc(S(=O)(=O)O[C@H]2C=C[C@H]3CO[C@@H]2O3)cc1 [Compound 46, 1,6-anhydro-3,4-dideoxy-2-O-(p-toluene)sulfonyl-β-D-threo-hex-3-enopyranose] | 110 µg/mL (≈ 390 µM) | 22 µg/mL | 190 µg/mL (≈ 673 µM) | 0.25 µg/mL | 0.35 µg/mL | 0.32 µg/mL
17 | C1=C[C@H]2CO[C@H](O2)[C@H]1OCc1ccccc1 [Compound 48] | 120 µg/mL (≈ 550 µM) | > 1000 µg/mL | 430 µg/mL (≈ 1970 µM) | 34 µg/mL | 35 µg/mL | 41 µg/mL
